The record followed here is patent US20250059196A1 (SHANGHAI HANSOH BIOMEDICAL CO., LTD., priority 2021, published 2025).

Data set [1] addresses Recombinant human MALT1/MLT protein (Homo sapiens (Human), UniProt Q9UDY8). Kind of data set: Inhibitory effect on MALT1 enzyme activity (Ac-LRSR-AMC substrate, fluorescence 460 nm). Format: biochemical. The conditions noted are these: 10 nM FL MALT1, Ac-LRSR-AMC substrate, 50 min pre-incubation, 4 h reaction. On the procedure:
Ac-LRSR-AMC was used as the substrate to test the IC50 of the inhibitory activity of compounds on MALT1 enzyme activity at their Km concentration.
Ac-LRSR-AMC was used as the substrate which was digested by MALT1 to produce products, which produced fluorescence that could be detected at 460 nm. The highest concentration of the compound detected was 1000 nM, 3-fold dilution, a total of 11 concentrations (1000 nM-0.017 nM). The reaction system is 10 nM FL MALT1 protein, […] Ac-LRSR-AMC, 50 mM Tris pH 7.5, 0.6M Citrate, 1 mM DTT, 1 mM EDTA, 0.05% BSA and 1.5% DMSO. The compound and the enzyme were pre-incubated at room temperature for 50 min. The substrate was then added and the reaction was carried out for 4 h.
The original data (460 nm reading) was calculated according to the following formula to obtain the inhibition rate.
(§1) Log(inhibitor) vs. response—Variable slope (four parameters) in GraphPad Prism 6 was used to perform fitting equation analysis on compound concentration and corresponding inhibition rate, the curve was fit and compound IC50 value was obtained.
(§2) The fitting calculation equation is Y=Bottom+(Top−Bottom)/(1+10^((Log IC50−X)*HillSlope))

The nature of data set [2]: Pharmacokinetics of oral administration in Balb/C mice. Format: in vivo. The conditions noted are these: male, mouse, po, 30 mg/kg, P.O., plasma; for AUC(0-t): read-out: AUC 0-t; for Cmax: read-out: Cmax; for Tmax: read-out: Tmax. As to the method:
Balb/C mice were used as test animals to study the pharmacokinetic behavior of the compound in the plasma of mice after oral administration at a dose of 30 mg/kg.
3 Balb/C mice (3/example), male, from Shanghai Jiesijie Experimental Animal Co., Ltd., animal production license number (SCXK (Shanghai) 2013-0006 N0.311620400001794).
3 Balb/C mice, male; p.o. respectively at a dose of 30 mg/kg and an administration volume of 10 mL/kg after the mice were fasted overnight.
Before and after administration of mice, 0.1 mL of blood was collected from the orbit at 0, 0.5, 1, 2, 4, 6, 8 and 24 h, and placed in EDTA-K2 test tubes, which was centrifuged at 6000 rpm at 4° C. for 6 min to separate plasma which was stored at −80° C.
• 1) 160 μL of acetonitrile was added to 40 μL of plasma sample for precipitation, and same was mixed and centrifuged at 3500×g for 5 to 20 min. • 2) 100 μL of the treated supernatant solution was taken and subjected to LC/MS/MS to analyze the concentrations of the test compounds.
• Liquid phase conditions: Shimadzu LC-20AD pump • Mass spectrometry conditions: AB Sciex API 4000 mass spectrometer • Chromatographic column: Phenomenex Gemiu 5 um C18 50×4.6 mm • Mobile phase: liquid A is 0.1% aqueous formic acid solution, liquid B is acetonitrile • flow rate: 0.8 mL/min • Elution time: 0-4.0 min, the eluent is as follows:
The main pharmacokinetic parameters were calculated using WinNonlin 8.2.

A further data set concerns OCI-Ly3 cells. The data set can be described thus: Inhibition of proliferation of OCI-Ly3 cells (CellTiter-Glo). The conditions noted are these: 96 h incubation, read-out: Inhibition test of proliferation of OCI-Ly3 cells IC50. The data set is classed as cell-based, human. As to the method:
The compound's inhibitory effect on the proliferation of TMD8 and OCI-Ly3 cells was evaluated through cell proliferation inhibition experiments.
The compound's inhibitory effect on the proliferation of TMD8 and OCI-Ly3 cells was detected by the CellTiter-Glo method. The highest concentration of the compound detected was 1000 nM, 3-fold dilution, a total of 9 concentrations (1000 nM-0.15 nM). After the cells were plated at an appropriate density, compounds were added the next day and incubated for 96 h before detection using the CellTiter-Glo Luminescent detection kit.
as §1, §2
For orientation: Cellular ATP, detected with luciferase, serves as a proxy for viable cell number.

Data set [3] addresses MALT1 protease activity in TMD8 cells (substrate BCL-10) (Homo sapiens (Human), UniProt Q9UDY8). The data set can be described thus: Intracellular MALT1 protease activity detection (BCL-10 ELISA in TMD8 cells). The conditions noted are these: undigested BCL-10 by ELISA, 30 min compound then 2 h stimulation cocktail, read-out: Bcl10 TMD8 IC50. The data set is classed as cell-based. On the procedure:
By detecting the digestion level of the substrate BCL-10 by MALT1 in TMD8 cells, the inhibitory effect of the compound on MALT1 protease activity in the cellular environment was tested.
The ELISA sandwich method was used to detect the content of undigested BCL-10 protein in cells and determine the inhibitory effect of compounds on intracellular MALT1 protease activity. The highest concentration of the compound detected was 10000 nM, 3-fold dilution, a total of 9 concentrations (10000 nM-1.5 nM). Cells were plated at an appropriate density. Compounds of corresponding concentrations were first added for action for 30 min, and then eBioscience cell stimulation cocktail was added to stimulate the cells for 2 h. Cell lysate was then collected. The cell lysate was added to the assay plate previously coated with recombinant BCL-10 antibody (Abcam, #Ab33905) and incubated at 4° C. overnight. The next day, BCL-10 detection antibody (Santacruz, #Sc-5273HRP) was added and incubated for 2 h, TMB substrate was used for color development for about 30 min, then the color development was terminated, and a microplate reader was used for detection.
2) Curve fitting: Log(inhibitor) vs. response—Variable slope (four parameters) in GraphPad Prism 6 was used to perform fitting equation analysis on compound concentration and corresponding inhibition rate, the curve was fit and compound IC50 value was obtained.
as §2
Background: An ELISA detects its analyte on a solid surface through an enzyme-linked reagent.

Read-outs that look alike come from different tables or passages of the source.

Sequence of Recombinant human MALT1/MLT protein (Q9UDY8 whole entry): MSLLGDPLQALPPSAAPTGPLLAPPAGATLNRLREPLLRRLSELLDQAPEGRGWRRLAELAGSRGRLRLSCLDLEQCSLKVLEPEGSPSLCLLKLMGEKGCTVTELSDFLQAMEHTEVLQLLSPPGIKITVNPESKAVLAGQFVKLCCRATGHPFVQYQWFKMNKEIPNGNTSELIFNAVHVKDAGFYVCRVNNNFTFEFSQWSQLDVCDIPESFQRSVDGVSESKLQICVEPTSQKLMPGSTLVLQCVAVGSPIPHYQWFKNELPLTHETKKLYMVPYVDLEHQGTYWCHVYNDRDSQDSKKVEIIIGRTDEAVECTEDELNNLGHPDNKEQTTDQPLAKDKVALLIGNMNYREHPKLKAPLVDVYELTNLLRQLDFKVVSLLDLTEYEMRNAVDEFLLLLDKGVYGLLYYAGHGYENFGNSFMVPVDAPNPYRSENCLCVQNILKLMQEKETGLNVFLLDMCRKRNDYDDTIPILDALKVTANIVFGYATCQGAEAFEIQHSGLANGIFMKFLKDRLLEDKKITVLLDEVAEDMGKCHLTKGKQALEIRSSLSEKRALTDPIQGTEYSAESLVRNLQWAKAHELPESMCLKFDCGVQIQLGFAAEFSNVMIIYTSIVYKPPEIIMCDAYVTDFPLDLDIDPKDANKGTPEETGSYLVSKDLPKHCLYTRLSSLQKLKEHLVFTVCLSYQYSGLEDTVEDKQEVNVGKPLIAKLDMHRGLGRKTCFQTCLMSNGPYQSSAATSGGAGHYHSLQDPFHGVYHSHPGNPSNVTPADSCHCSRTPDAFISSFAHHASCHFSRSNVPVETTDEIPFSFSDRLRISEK
Sequence of MALT1 protease activity in TMD8 cells (substrate BCL-10) (Q9UDY8 whole entry): as above

`O=C(Nc1ccnc(C(F)(F)F)c1)c1cnn(-c2ccc3c4c(cccc24)OC3)c1C(F)(F)F` [Example 15, 1-(2H-naphthalene [1,8-bc]furan-5-yl)-5-trifluoromethyl-N-(2-trifluoromethyl-pyridin-4-yl)-1H-pyrazole-4-carboxamide]: in data set [1], the IC50 was 169 nM.

Consider `O=C(Nc1cnc(-n2cccn2)c(C(F)(F)F)c1)c1cnn(-c2ccc3c4c(cccc24)C(=O)N3)c1C(F)(F)F` [Example 31, N-(6-(1H-pyrazol-1-yl)-5-(trifluoromethyl)pyridin-3-yl)-1-(2-carbonyl-1,2-dihydrobenzo[cd]indol-6-yl)-5-(trifluoromethyl)-1H-pyrazole-4-carboxamide], for which, in data set [2], the AUC(0-inf) (commonly the area under the concentration-time curve extrapolated to infinity) amounted to 197 µg·h/mL; the half-life – broadly, the time needed for the level to fall by half in the phase considered – was 1.9 h; the AUC(0-t) (usually the area under the concentration-time curve up to a stated or last time point) came out at 197 µg·h/mL; the Cmax – broadly, the maximum level reached in the sampled fluid or tissue – came to 25900 ng/mL. Moreover, in data set [2], the Tmax – broadly, the time at which the peak concentration occurs – was determined as 2 h. Besides, in data set [2] (read-out: MRT), the MRT (as a rule, the average time that molecules of a dose stay in the body) was determined as 4.7 h. Also, in the data set with OCI-Ly3 cells (Homo sapiens), the IC50 came out at 206 nM. Also, in data set [3], the IC50 came to 103 nM.

On to `N#Cc1ccnn1-c1ncc(NC(=O)c2cnn(-c3ccc4c5c(cccc35)C(=O)N4)c2C(F)(F)F)cc1C(F)(F)F` [Example 32], for which, in the data set with OCI-Ly3 cells (Homo sapiens), the IC50 stood at 266 nM.

`O=C(Nc1cnc(-c2ncco2)c(C(F)(F)F)c1)c1cnn(-c2ccc3c4c(cccc24)C(=O)N3)c1C(F)(F)F` [Example 34, N-(6-(oxazol-2-yl)-5-(trifluoromethyl)pyridin-3-yl)-1-(2-carbonyl-1,2-dihydrobenzo[cd]indol-6-yl)-5-(trifluoromethyl)-1H-pyrazole-4-carboxamide]: in the data set on OCI-Ly3 cells (Homo sapiens), the IC50 was 212 nM.

In the case of `Cc1nc(-c2ncc(NC(=O)c3cnn(-c4ccc5c6c(cccc46)C(=O)N5)c3C(F)(F)F)cc2C(F)(F)F)oc1C` [Example 35, N-(6-(4,5-dimethyloxazol-2-yl)-5-(trifluoromethyl)pyridin-3-yl)-1-(2-carbonyl-1,2-dihydrobenzo[cd]indol-6-yl)-5-(trifluoromethyl)-1H-pyrazole-4-carboxamide], the IC50 in the data set with OCI-Ly3 cells (Homo sapiens) was 263 nM.

Take `Cn1ccc(-c2ncc(NC(=O)c3cnn(-c4ccc5c6c(cccc46)C(=O)N5)c3C(F)(F)F)cc2C(F)(F)F)n1` [Example 37, N-(6-(1-methyl-1H-pyrazol-3-yl)-5-(trifluoromethyl)pyridin-3-yl)-1-(2-oxo-1,2-dihydrobenzo[cd]indol-6-yl)-5-(trifluoromethyl)-1H-pyrazole-4-carboxamide]: in data set [1], the IC50 turned out to be 48 nM.

As to `O=C(Nc1cnc(-n2cccn2)c(Cl)c1)c1cnn(-c2ccc3c4c(cccc24)C(=O)N3)c1C(F)(F)F` [Example 44], the values for the IC50 (in the data set with OCI-Ly3 cells; in data set [1]) were 149 nM and 80 nM, respectively.

For the compound `Cn1cnc(-c2ncc(NC(=O)c3cnn(-c4ccc5c6c(cccc46)C(=O)N5)c3C(F)(F)F)cc2Cl)n1` [Example 45], the IC50 in data set [1] worked out at 123 nM.

In the case of `Cc1ncnn1-c1ncc(NC(=O)c2cnn(-c3ccc4c5c(cccc35)C(=O)N4)c2C(F)(F)F)cc1Cl` [Example 47], the IC50 in data set [1] is 123 nM.

Turning to `O=C(Nc1ccc(-n2nccn2)c(C(F)(F)F)c1)c1cnn(-c2ccc3c4c(cccc24)C(=O)N3)c1C(F)(F)F` [Example 50, N-(4-(2H-1,2,3-triazol-2-yl)-3-(trifluoromethyl)phenyl)-1-(2-oxo-1,2-dihydrobenzo[cd]indol-6-yl)-5-(trifluoromethyl)-1H-pyrazole-4-carboxamide], in data set [2], the exposure AUC(0-t) was 54.4 µg·h/mL, the Cmax came out at 3020 ng/mL and the Tmax came out at 8 h. For the same compound, the IC50 in the data set with OCI-Ly3 cells (Homo sapiens) came to 219 nM. For the same compound, in data set [1], the IC50 was determined as 39 nM.

`O=C(Nc1ccc(-n2cccn2)c(C(F)(F)F)c1)c1cnn(-c2ccc3c4c(cccc24)C(=O)N3)c1C(F)(F)F` [Example 51, N-(4-(1H-pyrazol-1-yl)-3-(trifluoromethyl)phenyl)-1-(2-carbonyl-1,2-dihydrobenzo[cd]indol-6-yl)-5-(trifluoromethyl)-1H-pyrazole-4-carboxamide]: in the data set with OCI-Ly3 cells (Homo sapiens), the IC50 was determined as 83 nM.

For the compound `O=C(Nc1cnc(-n2nccn2)c(C(F)(F)F)c1)c1cnn(-c2ccc3c4c(cccc24)C(=O)N3)c1C(F)F` [Example 66, N-(6-(2H-1,2,3-triazol-2-yl)-5-trifluoromethylpyridin-3-yl)-5-difluoromethyl-1-(2-oxo-1,2-dihydrobenzo[cd]indol-6-yl)-1H-pyrazole-4-carboxamide], the IC50 with OCI-Ly3 cells (Homo sapiens) amounted to 87 nM; in data set [1] it was 193 nM.

For `O=C(Nc1cnc(-n2nccn2)c(Cl)c1)c1cnn(-c2ccc3c4c(cccc24)C(=O)N3)c1C(F)F` [Example 67, N-(6-(2H-1,2,3-triazol-2-yl)-5-chloropyridin-3-yl)-5-difluoromethyl-1-(2-oxo-1,2-dihydrobenzo[cd]indol-6-yl)-1H-pyrazole-4-carboxamide], in data set [1], the IC50 was 48 nM.

Take `O=C(Nc1ccc(-n2cccn2)c(C(F)(F)F)c1)c1cnn(-c2cnc3c4c(cccc24)C(=O)N3)c1C(F)(F)F` [Example 74, N-(4-(1H-pyrazol-1-yl)-3-(trifluoromethyl)phenyl)-1-(2-carbonyl-1,2-dihydropyrrolo[4,3,2-ij]isoquinolin-6-yl)-5-(trifluoromethyl)-1H-pyrazole-4-carboxamide]: in the data set on OCI-Ly3 cells (Homo sapiens), the IC50 was 234 nM.

For `O=C(Nc1cnc(-n2nccn2)c(C(F)(F)F)c1)c1cnn(-c2cnc3c4c(cccc24)C(=O)N3)c1C1CC1` [Example 78, N-(6-(2H-1,2,3-triazol-2-yl)-5-(trifluoromethyl)pyridin-3-yl)-5-cyclopropyl-1-(2-oxo-1,2-dihydropyrrolo[4,3,2-ij]isoquinolin-6-yl)-1H-pyrazole-4-carboxamide], the IC50 in data set [3] came to 67 nM.

Take `O=C(Nc1ccc(-n2nccn2)c(C(F)(F)F)c1)c1cnn(-c2cnc3c4c(cccc24)C(=O)N3)c1C1CC1` [Example 83, N-(4-(2H-1,2,3-triazol-2-yl)-3-(trifluoromethyl)phenyl)-5-cyclopropyl-1-(2-oxo-1,2-dihydropyrrolo[4,3,2-ij]isoquinolin-6-yl)-1H-pyrazole-4-carboxamide]: the IC50 in data set [1] was 50 nM.

On to `N#Cc1cc(-n2ncc(C(=O)Nc3ccnc(C(F)(F)F)c3)c2C(F)(F)F)c2cccc3c2c1NC3=O` [Example 92, 1-(8-cyano-2-carbonyl-1,2-dihydrobenzo[cd]indol-6-yl)-5-(trifluoromethyl)-N-(2-(trifluoromethyl)pyridin-4-yl)-1H-pyrazole-4-carboxamide], for which, in the data set on OCI-Ly3 cells (Homo sapiens), the IC50 amounted to 128 nM.
